Here are results for 38 molecules from patent US20140288090A1, “N-ARYLYLMETHYLINDAZOLE MODULATORS OF PPARG” (priority 2011, published 2014).

Like-named read-outs stand apart in the source and are kept apart here. Some results are limits rather than exact numbers.

For experiment [1], the target named is T1, GST-PPARG-LBD (Homo sapiens, UniProt P37231).
T1 construct: A mixture of 5 nM GST-PPARG-LBD; purchased Invitrogen
T1 sequence (P37231 238-503 limits assumed): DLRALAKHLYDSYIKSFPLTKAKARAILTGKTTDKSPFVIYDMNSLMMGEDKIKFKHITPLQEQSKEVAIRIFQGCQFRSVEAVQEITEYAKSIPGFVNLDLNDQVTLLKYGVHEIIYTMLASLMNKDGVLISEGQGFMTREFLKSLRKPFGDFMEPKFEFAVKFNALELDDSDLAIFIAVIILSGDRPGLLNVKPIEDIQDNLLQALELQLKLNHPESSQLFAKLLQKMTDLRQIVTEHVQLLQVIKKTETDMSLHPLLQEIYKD
As to the kind of experiment: Lanthascreen PPARG competitive binding assay (Invitrogen). How it is done: The assay was performed according to manufacturer protocol. A mixture of 5 nM GST-PPARG-LBD, 5 nM Tb-GST-antibody, 5 nM Fluormone Pan-PPAR. Green, and serial dilutions of the experimental compound, beginning at 10 μM downwards, was added to wells of black 384-well low-volume plates (Greiner) to a total volume of 18 μL. All dilutions were made in TR-FRET assay buffer C. DMSO at 2% final concentration was used as a no-ligand control. Experiment was performed in triplicate, and incubated for 2 hours in the dark prior to assay read in Perkin Elmer ViewLux ultra HTS microplate reader. FRET signal was measured by excitation at […] and emission at 520 nm for fluorcscein and 490 nm for terbium. Fold change over DMSO was calculated using GraphPad Prism Software (La Jolla, Calif.) by calculating 520 nm/490 nm ratio. Graphs were plotted as fold change of FRET signal for compound treatment over DMSO-only control.
(Time-resolved FRET reads energy transfer from a long-lived donor to a nearby acceptor.)

Experiment [2] deals with PPARG (murine PPARg2 or full-length human PPARg co-transfected into COS-1 cells). As to the kind of experiment: Cell-based transactivation assay (3x PPRE-luciferase reporter, COS-1 cells). The following applies: PPRE::Luc reporter. How it is done:
PPRE is a DNA that contains a binding site for PPARG; thus PPRE is a PPAR response element, used herein as a promoter reporter. The binding site is a DR1 response element with the sequence [NT] repeated 3 times in tandem and then fused to a construct for luciferase. Thus, PPRE is the basis of the cell based transactivation assay described below. The plasmid DNA is co-transfected along with a plasmid for PPARG into COS-1 cells. After an overnight incubation, cells are treated with DMSO or compounds. […] Transfected cells were plated in white Perkin Elmer 384-well plates and incubated 4 hours. […] After 18 hour incubation, treated cells were developed with Brite Lite Plus (Perkin Elmer) and read in 384-well Luminescence Perkin Elmer EnVision Multilabel plate reader. Graphs were plotted in triplicate in GraphPad Prism Software as fold change of treated cells over DMSO control cells.

Setting [3] is: Table 3, Lantha 1, read-out: IC50 (nM) Lantha 1.
The mark [4] stands for this setting: Table 3, Lantha 2, read-out: IC50 (nM) Lantha 2.

Broadly, the IC50 is the concentration that gives 50% inhibition. On to `Cc1nn(Cc2ccc(-c3ccccc3C(=O)O)cc2)c2ccc(C(=O)NCC3CCC(C)CC3)cc12` (centres unmarked) [compound 38], for which the IC50 in experiment [1] (setting [3]) was 118 nM; in experiment [1] (setting [4]), 82.8 nM.

In the case of `COCCCNC(=O)c1ccc2c(c1)c(C)nn2Cc1ccc(-c2ccccc2C(=O)O)cc1` [compound 37], the half-inhibitory concentration (IC50) worked out at 1820 nM in experiment [1] (setting [3]) and 1740 nM in experiment [1] (setting [4]).

Regarding `Cc1nn(Cc2ccc(Cl)cc2)c2ccc(C(=O)N[C@@H](C)c3ccc(Br)cc3)cc12` [compound 53], the concentration for half-maximal inhibition (IC50) in experiment [1] (setting [4]) was determined as 1050 nM.

Turning to `COc1ccc(C(=O)n2c(C)c(Cc3cccc(O[C@@H](C)C(=O)O)c3)c3cc(OC(F)(F)F)ccc32)cc1` [MRL24], the “transactivation of the reporter relative to rosiglitazone response” value in experiment [2] is recorded as “about 25 % of rosiglitazone response”.

With `CCC(NC(=O)c1ccc2c(c1)c(C)nn2Cc1ccc(-c2ccccc2C(=O)O)cc1)c1ccccc1` (centres unmarked) [compound 28], in experiment [1] (setting [4]), the IC50 came out at 0.579 nM.

In the case of `Cc1nn(Cc2ccc(-c3ccccc3C(=O)O)cc2)c2ccc(C(=O)N[C@@H](C)c3cccc(C4CC4)c3)cc12` [compound 29], the half-inhibitory concentration (IC50) in experiment [1] (setting [4]) amounted to 18.8 nM.

In the case of `Cc1nn(Cc2ccc(-c3ccccc3C(=O)O)cc2)c2ccc(C(=O)N[C@H]3COc4ccccc4C3)cc12` [compound 33], the half-inhibitory concentration (IC50) in experiment [1] (setting [4]) turned out to be 235 nM.

As to `CCC(NC(=O)c1ccc2c(c1)c(C(C)C)nn2Cc1ccc(-c2ccccc2C(=O)O)cc1)c1ccccc1` (centres unmarked) [compound 47], the IC50 in experiment [1] (setting [3]) was 1.85 nM; in experiment [1] (setting [4]), 0.681 nM.

On to `CCCCNC(=O)c1ccc2c(c1)c(C)nn2Cc1ccc(-c2ccccc2C(=O)O)cc1` [compound 35], for which the 50% inhibitory concentration (IC50) in experiment [1] (setting [3]) turned out to be 76.3 nM; in experiment [1] (setting [4]), 84.1 nM.

Regarding `CC(C)c1nn(Cc2ccc(-c3ccccc3C(=O)O)cc2)c2ccc(C(=O)N[C@@H](C)c3ccc(Br)cc3)cc12` [compound 50], the results for the half-maximal inhibitory concentration (IC50) in experiment [1] (setting [3]) and in experiment [1] (setting [4]) were 19.9 nM and 15.2 nM, respectively.

As for `Cc1nn(Cc2ccc(-c3ccccc3C(=O)O)cc2)c2ccc(C(=O)N[C@@H](C)C3CCCCC3)cc12` [compound 31], the IC50 in experiment [1] (setting [4]) is 41.7 nM.

Consider `Cc1nn(Cc2ccc(-c3ccccc3C#N)cc2)c2ccc(C(=O)N[C@@H](C)c3ccc(Br)cc3)cc12` [compound 40], for which the IC50 in experiment [1] (setting [3]) turned out to be 40.8 nM; in experiment [1] (setting [4]), 37.7 nM.

On to `Cc1nn(Cc2ccc(-c3ccccc3C(=O)O)cc2)c2ccc(C(=O)N[C@@H]3COc4ccccc4C3)cc12` [compound 34], for which, in experiment [1] (setting [4]), the IC50 is 147 nM.

Turning to `Cc1nn(Cc2ccc(-c3ccccc3C(=O)O)cc2)c2ccc(C(=O)N[C@H](C)C3CCCCC3)cc12` [compound 30], the IC50 in experiment [1] (setting [4]) came to 21.6 nM.

Take `C=C(C)c1nn(Cc2ccc(-c3ccccc3C(=O)O)cc2)c2ccc(C(=O)NCCOC)cc12` [compound 51]: the results for the half-maximal inhibitory concentration (IC50) in experiment [1] (setting [3]) and in experiment [1] (setting [4]) were 120 nM and 166 nM, respectively.

Take `CC[C@H](NC(=O)c1ccc2c(c1)c(C)nn2Cc1ccc(-c2ccccc2C(=O)O)cc1)c1ccccc1` [compound 43]: the IC50 in experiment [1] (setting [4]) was 13 nM.

`Cc1nn(Cc2ccc(-c3ccccc3C(=O)O)cc2)c2ccc(C(=O)NC3CCC(C)CC3)cc12` (centres unmarked) [compound 25]: the IC50 in experiment [1] (setting [3]) came out at 255 nM; in experiment [1] (setting [4]), 82.8 nM.

Turning to `CC[C@H](NC(=O)c1ccc2c(c1)c(C(C)C)nn2Cc1ccc(-c2ccccc2C(=O)O)cc1)c1ccc(Br)cc1` [compound 49], the concentration for half-maximal inhibition (IC50) in experiment [1] (setting [4]) stood at 0.119 nM.

For the molecule `Cc1nn(Cc2ccc(-c3ccccc3C(=O)O)cc2)c2ccc(C(=O)NC3CCCCC3)cc12` [compound 23], the figures for the IC50 in experiment [1] (setting [3]) and in experiment [1] (setting [4]) were 560 nM and 562 nM, respectively.

For the molecule `COCCNC(=O)c1ccc2c(c1)c(C)nn2Cc1ccc(-c2ccccc2C(=O)O)cc1` [compound 22], the results for the IC50 in experiment [1] (setting [3]) and in experiment [1] (setting [4]) were more than 100 nM and 824 nM, respectively.

Take `Cc1nn(Cc2ccc(C3(C(=O)O)CC3)cc2)c2ccc(C(=O)N[C@@H](C)c3ccc(Br)cc3)cc12` [compound 56]: the IC50 in experiment [1] (setting [4]) worked out at 144 nM.

As to `Cc1nn(Cc2cccc(O[C@H](C)C(=O)O)c2)c2ccc(C(=O)N[C@@H](C)c3ccc(Br)cc3)cc12` [compound 54], the IC50 in experiment [1] (setting [4]) stood at 21.6 nM.

Turning to `COCCNC(=O)c1ccc2c(c1)c(C(C)C)nn2Cc1ccc(-c2ccccc2C(=O)O)cc1` [compound 46], the IC50 in experiment [1] (setting [3]) was 359 nM; in experiment [1] (setting [4]) it was 432 nM.

Turning to `Cc1nn(Cc2ccccn2)c2ccc(C(=O)N[C@@H](C)c3ccc(Br)cc3)cc12` [compound 57], the IC50 in experiment [1] (setting [4]) was determined as 877 nM.

Consider `CCOCCNC(=O)c1ccc2c(c1)c(C)nn2Cc1ccc(-c2ccccc2C(=O)O)cc1` [compound 36], for which the IC50 in experiment [1] (setting [3]) came to 4420 nM; in experiment [1] (setting [4]), 344 nM.

Take `Cc1nn(Cc2ccc(-c3ccccc3C(=O)O)cc2)c2ccc(C(=O)NC3CCCCCC3)cc12` [compound 24]: the half-inhibitory concentration (IC50) was 204 nM in experiment [1] (setting [3]) and 176 nM in experiment [1] (setting [4]).

On to `COC[C@H](C)NC(=O)c1ccc2c(c1)c(C)nn2Cc1ccc(-c2ccccc2C(=O)O)cc1` [compound 32], for which the 50% inhibitory concentration (IC50) in experiment [1] (setting [4]) was determined as 367 nM.

`Cc1ccc([C@H](C)NC(=O)c2ccc3c(c2)c(C)nn3Cc2ccc(-c3ccccc3C(=O)O)cc2)cc1` [compound 27]: the concentration for half-maximal inhibition (IC50) in experiment [1] (setting [4]) was 31.8 nM.

As for `Cc1nn(Cc2ccccc2C#N)c2ccc(C(=O)N[C@@H](C)c3ccc(Br)cc3)cc12` [compound 55], in experiment [1] (setting [4]), the 50% inhibitory concentration (IC50) turned out to be 32.2 nM.

In the case of `Cc1nn(Cc2ccc(-c3ccccc3C(=O)O)cc2)c2ccc(C(=O)NC3CCCC3)cc12` [compound 21], the IC50 is 11.5 nM in experiment [1] (setting [3]) and 870 nM in experiment [1] (setting [4]).

Turning to `COCCNC(=O)c1ccc2c(c1)c(C)nn2Cc1cccc(C#N)c1` [compound 58], the IC50 in experiment [1] (setting [4]) worked out at 4770 nM.

With `Cc1nn(Cc2ccc(-c3ccccc3C(=O)O)cc2)c2ccc(C(=O)N[C@@H](C)c3ccc(Br)cc3)cc12` [compound 42], the IC50 in experiment [1] (setting [3]) worked out at 9.83 nM; in experiment [1] (setting [4]), 2.8 nM.

As to `CC(C)c1nn(Cc2ccc(-c3ccccc3C(=O)O)cc2)c2ccc(C(=O)NC3CCCC3)cc12` [compound 48], the results for the IC50 in experiment [1] (setting [3]) and in experiment [1] (setting [4]) were 133 nM and 259 nM, respectively.

`CN(CCOc1ccc(CC2SC(=O)NC2=O)cc1)c1ccccn1` (centres unmarked) [rosiglitazone]: in experiment [2], the “activation of the PPRE reporter” value was “about 5 fold”.

With `Cc1nn(Cc2ccc(-c3ccccc3-c3nnn[nH]3)cc2)c2ccc(C(=O)N[C@@H](C)c3ccc(Br)cc3)cc12` [compound 41], in experiment [1] (setting [4]), the half-maximal inhibitory concentration (IC50) is 2.6 nM.

Consider `Cc1nn(Cc2ccccc2)c2ccc(C(=O)N[C@@H](C)c3ccc(Br)cc3)cc12` [compound 52], for which the IC50 in experiment [1] (setting [3]) amounted to 713 nM; in experiment [1] (setting [4]), 932 nM.

As to `Cc1nn(Cc2ccc(-c3ccccc3C(=O)O)cc2)c2ccc(C(=O)N[C@@H](C)c3cccc(C(C)C)c3)cc12` [compound 26], the IC50 is 23.4 nM in experiment [1] (setting [3]) and 94.8 nM in experiment [1] (setting [4]).

For the molecule `Cc1nn(Cc2ccc(-c3ccccc3C(N)=O)cc2)c2ccc(C(=O)N[C@@H](C)c3ccc(Br)cc3)cc12` [compound 39], the IC50 in experiment [1] (setting [4]) was determined as 16.1 nM.
